According to PubChem BioAssay AID1963839 (Molecular Pharmacology Branch, DTP, NCI, 2024):

System: 817829-284-R-J1-PDC complex spheroid viability
Experiment: Anticancer human tumor 817829-284-R-J1-PDC patient-derived colon adenocarcinoma cell line growth inhibition [POLQ]
Conditions: for IC50: curve of first compound; for viability, T/C: stronger effect = lower value
Method in brief: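 Patient-derived tumour cells were co-cultured with HUVEC and mesenchymal stem cells as multicellular spheroids at 37 °C. They were treated with POLQ inhibitors (novobiocin, ART-558, RP6685) alone or combined with other agents. Top concentrations were at or near clinical Cmax (otherwise 10 microM; SN-38 at 1 microM), decreasing in half-log steps.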

[1] = second compound 0.0316 µM, first compound 0.0316 µM
[2] = second compound 0.0316 µM, first compound 0.1 µM
[3] = second compound 0.0316 µM, first compound 0.316 µM
[4] = second compound 0.0316 µM, first compound 1 µM
[5] = second compound 0.0316 µM, first compound 3.16 µM
[6] = second compound 0.0316 µM, first compound 10 µM
[7] = second compound 0.1 µM, first compound 0.0316 µM
[8] = second compound 0.1 µM, first compound 0.1 µM
[9] = second compound 0.1 µM, first compound 0.316 µM
[10] = second compound 0.1 µM, first compound 1 µM
[11] = second compound 0.1 µM, first compound 3.16 µM
[12] = second compound 0.1 µM, first compound 10 µM
[13] = second compound 0.316 µM, first compound 0.0316 µM
[14] = second compound 0.316 µM, first compound 0.1 µM
[15] = second compound 0.316 µM, first compound 0.316 µM
[16] = second compound 0.316 µM, first compound 1 µM
[17] = second compound 0.316 µM, first compound 3.16 µM
[18] = second compound 0.316 µM, first compound 10 µM
[19] = second compound 1 µM, first compound 0.0316 µM
[20] = second compound 1 µM, first compound 0.1 µM
[21] = second compound 1 µM, first compound 0.316 µM
[22] = second compound 1 µM, first compound 1 µM
[23] = second compound 1 µM, first compound 3.16 µM
[24] = second compound 1 µM, first compound 10 µM
[25] = second compound 3.16 µM, first compound 0.0316 µM
[26] = second compound 3.16 µM, first compound 0.1 µM
[27] = second compound 3.16 µM, first compound 0.316 µM
[28] = second compound 3.16 µM, first compound 1 µM
[29] = second compound 3.16 µM, first compound 3.16 µM
[30] = second compound 3.16 µM, first compound 10 µM
[31] = second compound 10 µM, first compound 0.0316 µM
[32] = second compound 10 µM, first compound 0.1 µM
[33] = second compound 10 µM, first compound 0.316 µM
[34] = second compound 10 µM, first compound 1 µM
[35] = second compound 10 µM, first compound 3.16 µM
[36] = second compound 10 µM, first compound 10 µM
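Further: spheroids exposed to compounds for 7 days.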
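Wherever viability, T/C is given: 100% = DMSO vehicle-treated spheroids.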

Compound: CC1COCCN1c1cc(C2(O)CC3CCC(C2)O3)c2cnn(-c3ccn[nH]3)c2n1 (stereo not drawn) + Nc1ccc(C#CCN(C(=O)Cc2ncc(C(F)(F)F)cc2C(F)(F)F)c2ccc(F)cc2)nn1
- IC50 (second compound 0.0316 µM): < 0.0316 µM
- IC50 (second compound 0.1 µM): < 0.0316 µM
- IC50 (second compound 0.316 µM): < 0.0316 µM
- IC50 (second compound 1 µM): < 0.0316 µM
- IC50 (second compound 3.16 µM): < 0.0316 µM
- IC50 (second compound 10 µM): < 0.0316 µM
- viability, T/C [1]: 26.3%
- viability, T/C [2]: 7.07%
- viability, T/C [3]: 4.65%
- viability, T/C [4]: 3.5%
- viability, T/C [5]: 3.48%
- viability, T/C [6]: 3.16%
- viability, T/C [7]: 36%
- viability, T/C [8]: 9.38%
- viability, T/C [9]: 4.42%
- viability, T/C [10]: 3.56%
- viability, T/C [11]: 2.98%
- viability, T/C [12]: 2.77%
- viability, T/C [13]: 25.9%
- viability, T/C [14]: 10.1%
- viability, T/C [15]: 4.5%
- viability, T/C [16]: 3.48%
- viability, T/C [17]: 3.21%
- viability, T/C [18]: 2.42%
- viability, T/C [19]: 29.4%
- viability, T/C [20]: 10.3%
- viability, T/C [21]: 4.41%
- viability, T/C [22]: 3.09%
- viability, T/C [23]: 2.69%
- viability, T/C [24]: 2.28%
- viability, T/C [25]: 29.5%
- viability, T/C [26]: 7.74%
- viability, T/C [27]: 3.99%
- viability, T/C [28]: 2.88%
- viability, T/C [29]: 2.96%
- viability, T/C [30]: 2.33%
- viability, T/C [31]: 22%
- viability, T/C [32]: 8.66%
- viability, T/C [33]: 3.65%
- viability, T/C [34]: 3.1%
- viability, T/C [35]: 2.74%
- viability, T/C [36]: 2.24%

Compound: CCc1cc2c(N3CCc4c(cc(Cn5ccnc5)cc4-c4cn(C)nc4C(F)(F)F)C3=O)cc(C)nc2c(OC)n1 + Nc1ccc(C#CCN(C(=O)Cc2ncc(C(F)(F)F)cc2C(F)(F)F)c2ccc(F)cc2)nn1
- IC50 (second compound 0.0316 µM): 1.75 µM
- IC50 (second compound 0.1 µM): 2.07 µM
- IC50 (second compound 0.316 µM): 1.65 µM
- IC50 (second compound 1 µM): 2.19 µM
- IC50 (second compound 3.16 µM): 0.973 µM
- IC50 (second compound 10 µM): 0.963 µM
- viability, T/C [1]: 85.5%
- viability, T/C [2]: 73.8%
- viability, T/C [3]: 67.8%
- viability, T/C [4]: 56.1%
- viability, T/C [5]: 43.7%
- viability, T/C [6]: 31.4%
- viability, T/C [7]: 101%
- viability, T/C [8]: 80.5%
- viability, T/C [9]: 71.9%
- viability, T/C [10]: 62.2%
- viability, T/C [11]: 46.7%
- viability, T/C [12]: 26.7%
- viability, T/C [13]: 92.9%
- viability, T/C [14]: 80.3%
- viability, T/C [15]: 71.7%
- viability, T/C [16]: 57.1%
- viability, T/C [17]: 40.4%
- viability, T/C [18]: 30%
- viability, T/C [19]: 87%
- viability, T/C [20]: 66.3%
- viability, T/C [21]: 72.4%
- viability, T/C [22]: 82.6%
- viability, T/C [23]: 37.3%
- viability, T/C [24]: 23%
- viability, T/C [25]: 98%
- viability, T/C [26]: 76.7%
- viability, T/C [27]: 65.5%
- viability, T/C [28]: 49%
- viability, T/C [29]: 37.8%
- viability, T/C [30]: 29.1%
- viability, T/C [31]: 101%
- viability, T/C [32]: 71.3%
- viability, T/C [33]: 68.5%
- viability, T/C [34]: 50.2%
- viability, T/C [35]: 38.3%
- viability, T/C [36]: 30.4%

Compound: COc1cc2cc(C(=O)CCC(=O)O)sc2cc1OC + Nc1ccc(C#CCN(C(=O)Cc2ncc(C(F)(F)F)cc2C(F)(F)F)c2ccc(F)cc2)nn1
- IC50 (second compound 0.0316 µM): > 10 µM
- IC50 (second compound 0.1 µM): > 10 µM
- IC50 (second compound 0.316 µM): > 10 µM
- IC50 (second compound 1 µM): > 10 µM
- IC50 (second compound 3.16 µM): > 10 µM
- IC50 (second compound 10 µM): > 10 µM
- viability, T/C [1]: 91.1%
- viability, T/C [2]: 98.4%
- viability, T/C [3]: 90.1%
- viability, T/C [4]: 110%
- viability, T/C [5]: 136%
- viability, T/C [6]: 99.3%
- viability, T/C [7]: 99.4%
- viability, T/C [8]: 97.4%
- viability, T/C [9]: 101%
- viability, T/C [10]: 86.8%
- viability, T/C [11]: 105%
- viability, T/C [12]: 105%
- viability, T/C [13]: 93.1%
- viability, T/C [14]: 101%
- viability, T/C [15]: 114%
- viability, T/C [16]: 110%
- viability, T/C [17]: 108%
- viability, T/C [18]: 110%
- viability, T/C [19]: 96.1%
- viability, T/C [20]: 97%
- viability, T/C [21]: 104%
- viability, T/C [22]: 95.9%
- viability, T/C [23]: 103%
- viability, T/C [24]: 112%
- viability, T/C [25]: 102%
- viability, T/C [26]: 107%
- viability, T/C [27]: 99.7%
- viability, T/C [28]: 112%
- viability, T/C [29]: 117%
- viability, T/C [30]: 108%
- viability, T/C [31]: 99.8%
- viability, T/C [32]: 109%
- viability, T/C [33]: 98.1%
- viability, T/C [34]: 95.3%
- viability, T/C [35]: 93%
- viability, T/C [36]: 91.7%

Compound: O=C(Nc1ccc(O)c(NS(=O)(=O)c2ccc(F)cc2)c1)c1ccc(-c2ccccc2)cc1 + Nc1ccc(C#CCN(C(=O)Cc2ncc(C(F)(F)F)cc2C(F)(F)F)c2ccc(F)cc2)nn1
- IC50 (second compound 0.0316 µM): 6.53 µM
- IC50 (second compound 0.1 µM): 7.12 µM
- IC50 (second compound 0.316 µM): 6.8 µM
- IC50 (second compound 1 µM): 7.73 µM
- IC50 (second compound 3.16 µM): 7.08 µM
- IC50 (second compound 10 µM): 6.95 µM
- viability, T/C [1]: 109%
- viability, T/C [2]: 94.8%
- viability, T/C [3]: 107%
- viability, T/C [4]: 101%
- viability, T/C [5]: 70.2%
- viability, T/C [6]: 38.1%
- viability, T/C [7]: 103%
- viability, T/C [8]: 110%
- viability, T/C [9]: 90.6%
- viability, T/C [10]: 102%
- viability, T/C [11]: 74.7%
- viability, T/C [12]: 39.7%
- viability, T/C [13]: 113%
- viability, T/C [14]: 105%
- viability, T/C [15]: 105%
- viability, T/C [16]: 107%
- viability, T/C [17]: 76.9%
- viability, T/C [18]: 36.5%
- viability, T/C [19]: 113%
- viability, T/C [20]: 102%
- viability, T/C [21]: 100%
- viability, T/C [22]: 98.2%
- viability, T/C [23]: 86.6%
- viability, T/C [24]: 39.5%
- viability, T/C [25]: 100%
- viability, T/C [26]: 98.5%
- viability, T/C [27]: 119%
- viability, T/C [28]: 96.2%
- viability, T/C [29]: 88%
- viability, T/C [30]: 34.1%
- viability, T/C [31]: 103%
- viability, T/C [32]: 88.9%
- viability, T/C [33]: 113%
- viability, T/C [34]: 97.2%
- viability, T/C [35]: 85.3%
- viability, T/C [36]: 33.8%
